Assay results from ChEMBL document CHEMBL5038625, “Application of the dual-tail approach for the design and synthesis of novel Thiopyrimidine-Benzenesulfonamide hybrids as selective carbonic anhydrase inhibitors” (Eur J Med Chem, 2022).
pKi: −log10 of the molar value.

Columns and labels:
COLO 205 = assay: Antiproliferative activity against human COLO 205 cells assessed as cell growth inhibition at 10 uM incubated for 24 hrs by sulforhodamine B assay; assay type: functional; conditions: read-out: GI
LOX IMVI = assay: Antiproliferative activity against human LOX IMVI cells assessed as cell growth inhibition at 10 uM incubated for 24 hrs by sulforhodamine B assay; assay type: functional; conditions: read-out: GI
DU-145 = assay: Antiproliferative activity against human DU-145 cells assessed as cell growth inhibition at 10 uM incubated for 24 hrs by sulforhodamine B assay; assay type: functional; conditions: read-out: GI
Carbonic anhydrase 9 = Carbonic anhydrase 9 (Homo sapiens, UniProt Q16790); assay: Inhibition of human CA9 preincubated for 15 mins by phenol red dye based stopped flow CO2 hydration assay
T47D = assay: Antiproliferative activity against human T47D cells assessed as cell growth inhibition at 10 uM incubated for 24 hrs by sulforhodamine B assay; assay type: functional; conditions: read-out: GI
SN12C = assay: Antiproliferative activity against human SN12C cells assessed as cell growth inhibition at 10 uM incubated for 24 hrs by sulforhodamine B assay; assay type: functional; conditions: read-out: GI
HCT-15 = assay: Antiproliferative activity against human HCT-15 cells assessed as cell growth inhibition at 10 uM incubated for 24 hrs by sulforhodamine B assay; assay type: functional; conditions: read-out: GI
CAKI-1 = assay: Antiproliferative activity against human CAKI-1 cells assessed as cell growth inhibition at 10 uM incubated for 24 hrs by sulforhodamine B assay; assay type: functional; conditions: read-out: GI
KM12 = assay: Antiproliferative activity against human KM12 cells assessed as cell growth inhibition at 10 uM incubated for 24 hrs by sulforhodamine B assay; assay type: functional; conditions: read-out: GI
[1] = Antiproliferative activity against human […] cells assessed as cell growth inhibition at 10 uM incubated for 24 hrs by sulforhodamine B assay; assay type: functional; conditions: read-out: GI
M14 = assay: Antiproliferative activity against human M14 cells assessed as cell growth inhibition at 10 uM incubated for 24 hrs by sulforhodamine B assay; assay type: functional; conditions: read-out: GI
PC-3 = assay: Antiproliferative activity against human PC-3 cells assessed as cell growth inhibition at 10 uM incubated for 24 hrs by sulforhodamine B assay; assay type: functional; conditions: read-out: GI
K562 = assay: Antiproliferative activity against human K562 cells assessed as cell growth inhibition at 10 uM incubated for 24 hrs by sulforhodamine B assay; assay type: functional; conditions: read-out: GI
ACHN = assay: Antiproliferative activity against human ACHN cells assessed as cell growth inhibition at 10 uM incubated for 24 hrs by sulforhodamine B assay; assay type: functional; conditions: read-out: GI
Carbonic anhydrase 2 = Carbonic anhydrase 2 (Homo sapiens, UniProt P00918); assay: Inhibition of human CA2 preincubated for 15 mins by phenol red dye based stopped flow CO2 hydration assay
HCT-116 = assay: Antiproliferative activity against human HCT-116 cells assessed as cell growth inhibition at 10 uM incubated for 24 hrs by sulforhodamine B assay; assay type: functional; conditions: read-out: GI
OVCAR-5 = assay: Antiproliferative activity against human OVCAR-5 cells assessed as cell growth inhibition at 10 uM incubated for 24 hrs by sulforhodamine B assay; assay type: functional; conditions: read-out: GI
SF-539 = assay: Antiproliferative activity against human SF-539 cells assessed as cell growth inhibition at 10 uM incubated for 24 hrs by sulforhodamine B assay; assay type: functional; conditions: read-out: GI
A549 = assay: Antiproliferative activity against human A549 cells assessed as cell growth inhibition at 10 uM incubated for 24 hrs by sulforhodamine B assay; assay type: functional; conditions: read-out: GI
SR = assay: Antiproliferative activity against human SR cells assessed as cell growth inhibition at 10 uM incubated for 24 hrs by sulforhodamine B assay; assay type: functional; conditions: read-out: GI
HT-29 = assay: Antiproliferative activity against human HT-29 cells assessed as cell growth inhibition at 10 uM incubated for 24 hrs by sulforhodamine B assay; assay type: functional; conditions: read-out: GI
MCF7 = assay: Antiproliferative activity against human MCF7 cells assessed as cell growth inhibition at 10 uM incubated for 24 hrs by sulforhodamine B assay; assay type: functional; conditions: read-out: GI
UO-31 = assay: Antiproliferative activity against human UO-31 cells assessed as cell growth inhibition at 10 uM incubated for 24 hrs by sulforhodamine B assay; assay type: functional; conditions: read-out: GI
OVCAR-4 = assay: Antiproliferative activity against human OVCAR-4 cells assessed as cell growth inhibition at 10 uM incubated for 24 hrs by sulforhodamine B assay; assay type: functional; conditions: read-out: GI
CCRF-CEM = assay: Antiproliferative activity against human CCRF-CEM cells assessed as cell growth inhibition at 10 uM incubated for 24 hrs by sulforhodamine B assay; assay type: functional; conditions: read-out: GI
MOLT-4 = assay: Antiproliferative activity against human MOLT-4 cells assessed as cell growth inhibition at 10 uM incubated for 24 hrs by sulforhodamine B assay; assay type: functional; conditions: read-out: GI
SK-MEL-5 = assay: Antiproliferative activity against human SK-MEL-5 cells assessed as cell growth inhibition at 10 uM incubated for 24 hrs by sulforhodamine B assay; assay type: functional; conditions: read-out: GI

## NS(=O)(=O)c1ccc(Nc2cc(-c3ccccc3)nc(SCC(=O)c3ccc(Br)cc3)n2)cc1
COLO 205
  inhibition of growth at 10 µM: 9.34%
LOX IMVI
  inhibition of growth at 10 µM: 12.7%
DU-145
  inhibition of growth at 10 µM: 5.84%
Carbonic anhydrase 9
  pKi: 6.49
T47D
  inhibition of growth at 10 µM: 10.3%
SN12C
  inhibition of growth at 10 µM: 13.3%
HCT-15
  inhibition of growth at 10 µM: 28.4%
CAKI-1
  inhibition of growth at 10 µM: 19.4%
KM12
  inhibition of growth at 10 µM: 11.9%
[1]
  inhibition of growth at 10 µM: 14.2%
M14
  inhibition of growth at 10 µM: 7.75%
PC-3
  inhibition of growth at 10 µM: 8.3%
K562
  inhibition of growth at 10 µM: 22.8%
ACHN
  inhibition of growth at 10 µM: 9.12%
Carbonic anhydrase 2
  pKi: < 4.70
HCT-116
  inhibition of growth at 10 µM: 8.87%
OVCAR-5
  inhibition of growth at 10 µM: 5.54%
SF-539
  inhibition of growth at 10 µM: 5.75%
A549
  inhibition of growth at 10 µM: 6.27%
SR
  inhibition of growth at 10 µM: 15.7%
HT-29
  inhibition of growth at 10 µM: 21.8%
MCF7
  inhibition of growth at 10 µM: 26.9%
UO-31
  inhibition of growth at 10 µM: 19.4%
OVCAR-4
  inhibition of growth at 10 µM: 7.69%
CCRF-CEM
  inhibition of growth at 10 µM: 8.13%
MOLT-4
  inhibition of growth at 10 µM: 15.8%
SK-MEL-5
  inhibition of growth at 10 µM: 5.28%
